Test results as given in patent US20080318326A1 (priority 2005, published 2008).
Peptide text beside a SMILES is read from it.

Test: Alamethicin channel currents across PTFE-supported bilayer lipid membrane
Format: biochemical
Conditions: alamethicin 100 ng/ml on both sides of PTFE support matrix
Method: Alamethicin is a peptide that spontaneously inserts itself into a bilayer lipid membrane. Molecules of alamethicin can diffuse within the plane of the membrane and may associate with other alamethicin molecules to form a channel for the passage of small ions when a voltage is applied across a bilayer lipid membrane.
Given the above, alamethicin was used as an indicator of bilayer lipid membrane formation success.
In this example, alamethicin is dissolved in 100% ethanol (5 μg/ml) and stored at 4° C. After the bilayer lipid membrane is formed, alamethicin is added to solutions on both sides of the PTFE support matrix 11 to a final concentration of 100 ng/ml. Electrochemical measurements were then carried out using a two electrode system. Silver/silver chloride wires were used as the working and reference electrodes and based on measurements taken, channels were observed after 10 minutes.
The nature of the electrical current caused by the flow of ions is understood to be dependent on: • 1. The concentration of ions bathing the bilayer lipid membrane, • 2. The voltage applied and, • 3. The concentration of alamethicin.

Which “time after which channels were observed” value does the source give for `CC(=O)NC(C)(C)C(=O)N1CCC[C@H]1C(=O)NC(C)(C)C(=O)N[C@@H](C)C(=O)NC(C)(C)C(=O)N[C@@H](C)C(=O)N[C@@H](CCC(N)=O)C(=O)NC(C)(C)C(=O)N[C@H](C(=O)NC(C)(C)C(=O)NCC(=O)N[C@@H](CC(C)C)C(=O)NC(C)(C)C(=O)N1CCC[C@H]1C(=O)N[C@H](C(=O)NC(C)(C)C(=O)NC(C)(C)C(=O)N[C@@H](CCC(=O)O)C(=O)N[C@@H](CCC(N)=O)C(=O)N[C@H](CO)Cc1ccccc1)C(C)C)C(C)C` [alamethicin] (HELM PEPTIDE1{[ac].[Aib].P.[Aib].A.[Aib].A.Q.[Aib].V.[Aib].G.L.[Aib].P.V.[Aib].[Aib].E.Q.[OC[C@H](Cc1ccccc1)N[*:1]]}$$$$V2.0) here?
Its value is 10 min.
